We go through two molecules from BindingDB's records for doi:10.1016/j.bmcl.2015.05.018 (Martin-Luther-University Halle-Wittenberg, 2015).

Data set [1] in a line: Inhibition of human P-gp expressed in mouse T-cell lymphoma assessed as potentiation of daunorubicin-induced cellular toxicity by measuring daunorubicin IC50 at 10 uM by MTT assay (Rvb = 8.26 +/- 0.62 uM). (In general: Formazan colour is commonly taken as a measure of viable cells.)
Data set [2] in a line: Inhibition of human P-gp expressed in mouse T-cell lymphoma assessed as potentiation of daunorubicin-induced cellular toxicity by measuring daunorubicin IC50 at 5 uM by MTT assay (Rvb = 8.26 +/- 0.62 uM).

Regarding `CCOC(=O)C1=CN(Cc2ccccc2)c2ccccc2C1c1cccc(OC)c1` (stereo not drawn), the IC50 in data set [1] is 860 nM.

On to `CCOC(=O)C1=CN(Cc2ccccc2)c2ccccc2C1c1ccc(OC)c(OC)c1` (stereo not drawn), for which the IC50 was 4760 nM in data set [2] and 390 nM in data set [1].

A word on the IC50: it is the concentration needed to halve the response being measured.
